Experimental data published in PubChem BioAssay AID248 (DTP/NCI, 2004).
Several values for one entry are separate records, joined by “and”; a condition that tells them apart may be missing. Equal entries are not always repeated. Inconclusive results and toxic doses are left out. No stated cut-off is given here; in the data, active means T/C of 150% or more; inactive means T/C below 125%.

System: L1210 leukemia ip in BDF1 mice, survival T/C
Test: NCI In Vivo Anticancer Drug Screen. Data for tumor model L1210 Leukemia (intraperitoneal) in B6D2F1 (BDF1) mice
Conditions: endpoint: mean survival time, higher = longer survival
Procedure, shortened: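 Each compound was tested against a transplantable tumor grown in mice. The endpoint was survival, with treated animals benchmarked against vehicle controls as a simple ratio.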

[1] = dose: 100.0 mg/kg/injection, schedule: Q01DX009 (ip), vehicle: saline with Tween-80
[2] = dose: 100.0 mg/kg/injection, schedule: Q04DX002 (ip), vehicle: saline with Tween-80
[3] = dose: 200.0 mg/kg/injection, schedule: Q01DX009 (ip), vehicle: saline with Tween-80
[4] = dose: 200.0 mg/kg/injection, schedule: Q04DX002 (ip), vehicle: saline with Tween-80
[5] = dose: 400.0 mg/kg/injection, schedule: Q01DX009 (ip), vehicle: saline with Tween-80
[6] = dose: 400.0 mg/kg/injection, schedule: Q04DX002 (ip), vehicle: saline with Tween-80
[7] = dose: 50.0 mg/kg/injection, schedule: Q01DX009 (ip), vehicle: saline
[8] = dose: 100.0 mg/kg/injection, schedule: Q01DX009 (ip), vehicle: saline
[9] = dose: 100.0 mg/kg/injection, schedule: Q04DX003 (ip), vehicle: saline
[10] = dose: 200.0 mg/kg/injection, schedule: Q01DX009 (ip), vehicle: saline
[11] = dose: 200.0 mg/kg/injection, schedule: Q04DX003 (ip), vehicle: saline
[12] = dose: 100.0 mg/kg/injection, schedule: Q04DX003 (ip), vehicle: saline with Tween-80
[13] = dose: 200.0 mg/kg/injection, schedule: Q04DX003 (ip), vehicle: saline with Tween-80
[14] = dose: 400.0 mg/kg/injection, schedule: Q04DX003 (ip), vehicle: saline with Tween-80

Measured: T/C

COc1ccc(-c2sc(/N=C/c3cc(OC)c(OC)c(OC)c3)c(C#N)c2C)cc1OC
inactive: [1] 98 % of control and 103 % of control | [2] 93 % of control and 88 % of control | [3] 100 % of control and 88 % of control | [4] 93 % of control | [5] 92 % of control and 87 % of control | [6] 94 % of control and 104 % of control

CC(C)(C)SC1CC(=O)OC1=O (configuration not stated)
inactive: dose: 87.5 mg/kg/injection, schedule: Q04DX003 (ip), vehicle: saline with Tween-80 102 % of control | dose: 175.0 mg/kg/injection, schedule: Q04DX003 (ip), vehicle: saline with Tween-80 106 % of control | dose: 350.0 mg/kg/injection, schedule: Q04DX003 (ip), vehicle: saline with Tween-80 109 % of control

O=[N+]([O-])c1ccc(Oc2cc(Cl)c(Cl)cc2Cl)c(Cl)c1
inactive: dose: 75.0 mg/kg/injection, schedule: Q01DX001 (ip), vehicle: saline 87 % of control | dose: 150.0 mg/kg/injection, schedule: Q01DX001 (ip), vehicle: saline 90 % of control | dose: 300.0 mg/kg/injection, schedule: Q01DX001 (ip), vehicle: saline 87 % of control

Nc1ncnc2c1ncn2CCCCl
inactive: [7] 100 % of control | [8] 100 % of control | [9] 90 % of control | [10] 92 % of control | [11] 106 % of control

CCOCCC=O
inactive: [7] 97 % of control | [8] 91 % of control | [10] 91 % of control

ClCc1nc2nc(Cl)c(Cl)nc2[nH]1
inactive: [7] 88 % of control | [8] 102 % of control | [9] 101 % of control | [10] 102 % of control | [11] 101 % of control | dose: 400.0 mg/kg/injection, schedule: Q04DX003 (ip), vehicle: saline 98 % of control

COc1ccc(C)cc1NC(=O)Nc1cc(Cl)ccc1C
inactive: dose: 100.0 mg/kg/injection, schedule: Q01DX001 (ip), vehicle: saline with Tween-80 93 % of control | [1] 95 % of control and 112 % of control | [2] 102 % of control and 87 % of control | [12] 90 % of control | dose: 200.0 mg/kg/injection, schedule: Q01DX001 (ip), vehicle: saline with Tween-80 93 % of control | [3] 102 % of control and 88 % of control | [4] 87 % of control | [13] 101 % of control | [5] 93 % of control and 91 % of control | [6] 95 % of control and 87 % of control | [14] 94 % of control

NC(N)=S
inactive: [8] 103 % of control | dose: 100.0 mg/kg/injection, schedule: Q01DX015 (oral), vehicle: saline 97 % of control and 121 % of control | dose: 100.0 mg/kg/injection, schedule: Q04DX002 (ip), vehicle: saline 100 % of control | [10] 101 % of control | dose: 200.0 mg/kg/injection, schedule: Q01DX015 (oral), vehicle: saline 100 % of control and 121 % of control | dose: 200.0 mg/kg/injection, schedule: Q04DX002 (ip), vehicle: saline 113 % of control | dose: 400.0 mg/kg/injection, schedule: Q01DX009 (ip), vehicle: saline 103 % of control | dose: 400.0 mg/kg/injection, schedule: Q01DX015 (oral), vehicle: saline 122 % of control | dose: 400.0 mg/kg/injection, schedule: Q04DX002 (ip), vehicle: saline 95 % of control

CN1C2CCC1C(O)C(c1ccccc1)C2 (configuration not stated)
inactive: dose: 10.0 mg/kg/injection, schedule: Q01DX001 (ip), vehicle: saline 106 % of control | dose: 20.0 mg/kg/injection, schedule: Q01DX001 (ip), vehicle: saline 101 % of control | dose: 40.0 mg/kg/injection, schedule: Q01DX001 (ip), vehicle: saline 106 % of control

NC(=O)N/N=C/CSCc1ccccc1
inactive: [12] 102 % of control | [13] 97 % of control | [14] 92 % of control
